This is an account of results in patent US20070197509A1, “Compositions and methods for modulating gated ion channels” (PainCeptor Pharma Corporation, priority 2005, published 2007).

Assay [1] deals with T1, hASIC3 (h3) and/or hASIC1a (h1a).
T1 construct: EC50 (μM) in one experiment; HEK293
Briefly: FlexStation/FLIPR assay, channel not marked in the cell. The assay is classed as cell-based, human. The settings on record: Table H, cells without channel mark; HEK293; read-out: EC50 (μM) Flex/FLIPR. The text has this:
The MES-induced peak calcium response (or change in membrane potential), in the presence of test substance, is expressed relative to the MES response alone. Test substances that block the MES-induced calcium response (or change in membrane potential) are re-tested in triplicates. Confirmed hits are picked for further characterization by performing full dose-response curves to determine potency of each hit compound as represented by the IC50 values (i.e., the concentration of the test substance which inhibits 50% of the MES-induced calcium and/or membrane potentiation response; see, for example, FIG. 1).
The data shown in Table H was acquired using the FlexStation assay described in Example 1 on HEK293 cells expressing hASIC3 (h3) and/or hASIC1a (h1a).

Assay [2] concerns formalin-induced pain. Briefly: Formalin test, model of acute tonic pain. The format is in vivo. The settings on record: rat. As to the method:
Male Sprague-Dawley rats are housed together in groups of three animals under standard conditions with unrestricted access to food and water. All experiments are conducted according to the ethical guidelines for investigations of experimental pain in conscious animals (Zimmerman, 1983)
Assessment of formalin-induced flinching behavior in normal, uninjured rats (body weight 150-180 g) was made with the use of an Automated Nociception Analyser (University of California, San Diego, USA). Briefly, this involved placing a small C-shaped metal band (10 mm wide×27 mm long) on the hindpaw of the rat to be tested. The rats (four rats were included in each testing session) were then placed in a cylindrical plexiglass observation chamber (diameter 30.5 cm and height 15 cm) for 20 min for adaptation purposes prior to being administered drug or vehicle according to the experimental paradigm being followed. […] Rats were then returned to their separate observation chambers, each of which were in turn situated upon an enclosed detection device consisting of two electromagnetic coils designed to produce an electromagnetic field in which movement of the metal band could be detected. […] A sampling interval of 1 min was used and on the basis of the resulting response patterns 5 phases of nociceptive behaviour were identified and scored: first phase (P1; 0-5 min), interphase (Int; 6-15 min), second phase (P2; […]), phase 2A (P2A; 16-40 min) and phase 2B (P2B; 41-60 min).
Nociceptive behavior was also determined manually every 5 min by measuring the amount of time spent in each of four behavioral categories: 0, treatment of the injected hindpaw is indistinguishable from that of the contralateral paw; 1, the injected paw has little or no weight placed on it; 2, the injected paw is elevated and is not in contact with any surface; 3, the injected paw is licked, bitten, or shaken. A weighted nociceptive score, ranging from 0 to 3 was calculated by multiplying the time spent in each category by the category weight, summing these products, and dividing by the total time for each 5 min block of time. […]

The target in assay [3] is T2, hASIC3 (Homo sapiens, UniProt Q9UHC3).
T2 sequence (Q9UHC3 1-531): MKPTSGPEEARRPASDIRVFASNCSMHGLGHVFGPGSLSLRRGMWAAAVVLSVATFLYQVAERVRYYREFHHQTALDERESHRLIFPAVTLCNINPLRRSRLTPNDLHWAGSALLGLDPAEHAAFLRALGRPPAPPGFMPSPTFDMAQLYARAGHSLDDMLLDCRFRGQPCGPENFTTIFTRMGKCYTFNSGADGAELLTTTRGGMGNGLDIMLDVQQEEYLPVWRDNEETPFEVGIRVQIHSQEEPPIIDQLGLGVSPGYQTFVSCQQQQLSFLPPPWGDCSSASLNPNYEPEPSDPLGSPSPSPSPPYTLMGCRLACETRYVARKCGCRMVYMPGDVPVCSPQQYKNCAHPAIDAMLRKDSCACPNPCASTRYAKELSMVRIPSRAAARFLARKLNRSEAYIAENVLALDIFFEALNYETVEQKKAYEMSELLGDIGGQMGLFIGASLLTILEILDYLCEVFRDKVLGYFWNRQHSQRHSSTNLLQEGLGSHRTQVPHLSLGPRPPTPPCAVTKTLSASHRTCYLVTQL
Briefly: FlexStation assay on HEK293 cells expressing hASIC3. The assay is classed as cell-based. Also on record: expressed in transfected cells; host or cells: HEK293 cells. Conditions: FlexStation (Flex), Tables A-F; read-out: Biological Data (IC50 uM) h3 (Flex).

“Also recorded” adds a separate entry of the source.

Take `COc1ccc(C(=O)CN2CCN(c3cc(C)nc4ccccc34)CC2)cc1` [Compound A, 1-(4-methoxy-phenyl)-2-[4-(2-methyl-quinolin-4-yl)-piperazin-1-yl]-ethanone]: the EC50 in assay [1] was under 10 µM. Also, the “formalin-induced pain, flinching / total pain score (FIG. 5)” value in assay [2] (i.p. 30 min before formalin, Automated Nociception Analyser, phase 2, n=6) is given as “able to reduce the total pain score behavior; also recorded: dose-dependent reduction of the pain intensity”.
By ED50 is commonly meant the dose that gives a 50% effect, or the effect in half of the subjects. Usually IC50 stands for the concentration needed to halve the response being measured. Consider `Cc1cc(OC2CCN(Cc3ccccc3)CC2)c2ccccc2n1` [Compound R, 4-(1-benzyl-piperidin-4-yloxy)-2-methyl-quinoline], for which, in assay [1], the EC50 was over 10 µM. Besides, the ED50 in assay [2] (licking and biting episodes in phase IIa of the formalin test (FIG. 7), read-out: ED50 (dose where the pain score is reduced by half)) is about 50 mg/kg. In addition, the “formalin-induced pain behavior (FIGS. 6A, 6B)” value in assay [2] (manual scoring, overall pain behaviour and licking/biting, n=6) was “dose-dependent effect; also recorded: dose-dependent reduction of the pain behavior”. The IC50 in assay [3] lay within 5 to 15 µM.
